This passage reports GI50 and TGI results from PubChem BioAssay (NCI).

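Five concentrations, 48 hours, 96-well plates. Here, GI50 denotes the concentration required for 50% inhibition of growth. TGI denotes the concentration required for complete inhibition of growth.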 Bounds are passed on as bounds.

Among the test systems are BT-549 breast; HOP-62 NSCLC; KM12 colon; LOX IMVI melanoma; OVCAR-4 ovarian; OVCAR-5 ovarian; SF-268 CNS; SF-295 CNS; SK-MEL-5 melanoma; TK-10 renal.
What all share (experiment): NCI-60 cell line screen, 48 h

For `N#CC1=C(/N=C/c2ccccc2)Oc2c(ccc3ccccc23)C1c1ccccc1` (stereo not given), the GI50 in the assay on BT-549 breast was 0.951 µM; in the assay with HOP-62 NSCLC, 0.646 µM; in the assay with KM12 colon it was 0.46 µM; with LOX IMVI melanoma, 0.559 µM; with OVCAR-4 ovarian it was 0.698 µM; with OVCAR-5 ovarian it was 2.13 µM. The GI50 is 1.02 µM in the assay with SF-268 CNS, 0.357 µM in the assay on SF-295 CNS, 0.378 µM in the assay with SK-MEL-5 melanoma and 13.7 µM in the assay with TK-10 renal. Further, the TGI was above 24.5 µM in the assay with BT-549 breast; above 100 µM in the assay with HOP-62 NSCLC; above 100 µM in the assay with KM12 colon; above 100 µM in the assay with LOX IMVI melanoma; above 100 µM in the assay on OVCAR-4 ovarian; above 100 µM with OVCAR-5 ovarian. Moreover, the TGI with SF-268 CNS was above 100 µM; with SF-295 CNS, above 100 µM; in the assay on SK-MEL-5 melanoma, 2.5 µM; in the assay with TK-10 renal, above 100 µM.

For `COc1cc(/C=C/C(=O)c2cccc(-n3cc(-c4ccc(Cl)cc4)[nH]c3=O)c2)cc(OC)c1OC`, the GI50 in the assay with BT-549 breast is 12.3 µM; in the assay on HOP-62 NSCLC it was 23.6 µM; in the assay with KM12 colon, 5.45 µM; in the assay with LOX IMVI melanoma, 1.72 µM; in the assay on OVCAR-4 ovarian, 11.4 µM; in the assay on OVCAR-5 ovarian, 3.11 µM. For the same compound, the GI50 was 5.07 µM with SF-268 CNS, 24.3 µM in the assay with SF-295 CNS, 8.7 µM in the assay on SK-MEL-5 melanoma and 6.46 µM with TK-10 renal. Moreover, the TGI turned out to be 79.9 µM in the assay with BT-549 breast; 57.3 µM in the assay on HOP-62 NSCLC; 18.6 µM in the assay with KM12 colon; 3.2 µM in the assay on LOX IMVI melanoma; 38 µM in the assay with OVCAR-4 ovarian; 10.2 µM with OVCAR-5 ovarian. Also, the TGI in the assay with SF-268 CNS was 39.2 µM; in the assay on SF-295 CNS, above 100 µM; in the assay on SK-MEL-5 melanoma, 23.7 µM; in the assay with TK-10 renal, 71.5 µM.

Consider `CSc1nc2sc3c(c2c(=O)n1-c1ccc(C(C)C)cc1)CCC(=O)C3`, for which the GI50 with BT-549 breast is 2.94 µM; with HOP-62 NSCLC, 2.05 µM; in the assay on KM12 colon, 1.9 µM; in the assay with LOX IMVI melanoma it was 1.77 µM; with OVCAR-4 ovarian it was 2.34 µM; with OVCAR-5 ovarian it was 2.71 µM. Besides, the GI50 in the assay with SF-268 CNS was 2.18 µM; in the assay with SF-295 CNS it was 2.2 µM; in the assay with SK-MEL-5 melanoma it was 1.71 µM; in the assay on TK-10 renal, 2.58 µM. Moreover, the TGI with BT-549 breast came out at 8.36 µM; in the assay with HOP-62 NSCLC, 4.05 µM; in the assay with KM12 colon it was 3.95 µM; with LOX IMVI melanoma it was 3.27 µM; with OVCAR-4 ovarian, 5.86 µM; with OVCAR-5 ovarian it was 6.58 µM. For the same compound, the TGI with SF-268 CNS turned out to be 5.2 µM; with SF-295 CNS, 4.76 µM; in the assay with SK-MEL-5 melanoma, 3.36 µM; with TK-10 renal, 6.53 µM.

As for `CCc1cccc(C)c1NC(=O)c1sc2nc3c(cc2c1N)C(=O)CCC3`, the GI50 was 8.58 µM in the assay with BT-549 breast; 10.7 µM in the assay on HOP-62 NSCLC; 0.455 µM with KM12 colon; 0.742 µM with LOX IMVI melanoma; 0.78 µM in the assay on OVCAR-4 ovarian; 2.74 µM in the assay on OVCAR-5 ovarian. The GI50 in the assay with SF-268 CNS is 3.06 µM; with SF-295 CNS, 0.299 µM; in the assay on SK-MEL-5 melanoma, 0.353 µM; with TK-10 renal, 0.774 µM. Besides, the TGI in the assay with BT-549 breast, with HOP-62 NSCLC, in the assay with KM12 colon, with LOX IMVI melanoma, in the assay with OVCAR-4 ovarian and with OVCAR-5 ovarian was above 100 µM throughout. Besides, the TGI in the assay on SF-268 CNS was above 100 µM; in the assay with SF-295 CNS, above 100 µM; in the assay on SK-MEL-5 melanoma it was 5.89 µM; in the assay with TK-10 renal, 79.6 µM.

`COc1cc2nc(-c3cc(F)ccc3O)nc(N[C@@H]3CNC[C@H]3C(C)(C)O)c2cc1OC`: the GI50 in the assay with BT-549 breast was 1.64 µM; in the assay with HOP-62 NSCLC, 1.26 µM; with KM12 colon, 1.73 µM; with LOX IMVI melanoma it was 1.46 µM; in the assay on OVCAR-4 ovarian, 1.88 µM; with OVCAR-5 ovarian it was 1.5 µM. Besides, the GI50 was 1.32 µM in the assay on SF-268 CNS, 1.98 µM in the assay with SF-295 CNS, 1.74 µM in the assay with SK-MEL-5 melanoma and 1.94 µM in the assay on TK-10 renal. Further, the TGI came out at 3.09 µM in the assay with BT-549 breast; 2.76 µM in the assay with HOP-62 NSCLC; 3.18 µM in the assay on KM12 colon; 2.87 µM with LOX IMVI melanoma; 4.65 µM in the assay on OVCAR-4 ovarian; 3.67 µM with OVCAR-5 ovarian. Further, the TGI with SF-268 CNS is 2.75 µM; in the assay on SF-295 CNS, 4.14 µM; in the assay on SK-MEL-5 melanoma, 3.15 µM; in the assay with TK-10 renal, 5.68 µM.

With `c1ccc2c(c1)Nc1ccncc1S2`, the GI50 was 29.6 µM with BT-549 breast; 19.5 µM in the assay on HOP-62 NSCLC; 14.2 µM in the assay with KM12 colon; 23.8 µM in the assay with LOX IMVI melanoma; 23.7 µM in the assay on OVCAR-4 ovarian; 19 µM in the assay with OVCAR-5 ovarian. The GI50 in the assay with SF-268 CNS was 24.5 µM; with SF-295 CNS it was 14.7 µM; in the assay on SK-MEL-5 melanoma, 25.8 µM; with TK-10 renal, 22.7 µM. Further, the TGI is above 100 µM with BT-549 breast; above 100 µM in the assay on HOP-62 NSCLC; 42.5 µM with KM12 colon; above 100 µM with LOX IMVI melanoma; above 100 µM with OVCAR-4 ovarian; above 100 µM in the assay with OVCAR-5 ovarian. The TGI with SF-268 CNS was above 100 µM; in the assay with SF-295 CNS it was 68.8 µM; in the assay with SK-MEL-5 melanoma, above 100 µM; with TK-10 renal it was 83.4 µM.

Take `CCCCCCNC(=O)Oc1ccc(/C(=C(\C)c2ccc(Cl)cc2)c2ccc(OCCN3CCCCC3)cc2)cc1`: the GI50 with BT-549 breast is 3.61 µM; in the assay on HOP-62 NSCLC it was 5.28 µM; with KM12 colon, 3.53 µM; in the assay with LOX IMVI melanoma, 4.83 µM; in the assay with OVCAR-4 ovarian it was 2.35 µM; with OVCAR-5 ovarian, 5.03 µM. Besides, the GI50 was 4.9 µM in the assay with SF-268 CNS, 4.79 µM in the assay with SF-295 CNS, 2.46 µM with SK-MEL-5 melanoma and 5.79 µM with TK-10 renal. The TGI in the assay on BT-549 breast was determined as 8.12 µM; in the assay on HOP-62 NSCLC it was 11.9 µM; in the assay with KM12 colon, 10.4 µM; with LOX IMVI melanoma, 9.41 µM; with OVCAR-4 ovarian it was 7.73 µM; with OVCAR-5 ovarian, 16 µM. In addition, the TGI is 14 µM in the assay with SF-268 CNS, 9.62 µM in the assay on SF-295 CNS, 6.71 µM in the assay on SK-MEL-5 melanoma and 12.2 µM with TK-10 renal.

Consider `O=C(O)Cc1cccnc1`, for which the TGI with BT-549 breast, in the assay with HOP-62 NSCLC, in the assay with KM12 colon, with LOX IMVI melanoma, in the assay on OVCAR-4 ovarian and in the assay with OVCAR-5 ovarian was above 100 µM in each case. Moreover, the TGI in the assay with SF-268 CNS, in the assay with SF-295 CNS, with SK-MEL-5 melanoma and in the assay with TK-10 renal was above 100 µM in each case.
